Series [1] in a line: method code SF, from DOI: 10.1002/ps.2780140605.

The structures appear in SMILES notation.

Broadly, the logP is a log measure of how a compound divides between an organic and an aqueous phase. The low end stands for lower lipophilicity, the high end for higher lipophilicity. The compound `C#CCC(O)(c1ccc(C(C)C)cc1)c1cccnc1` (stereo not drawn) registered a logP in series [1] of 2.16.

`C#CCC(O)(CC#C)c1cccnc1` displayed a log partition coefficient (logP) in series [1] of 1.29.

Turning to `C#CCC(O)(c1cccnc1)c1ccc(Cl)c(Cl)c1` (stereo not drawn), the logP in series [1] came to 2.42.

As to `C#CCC(O)(c1ccc(F)cc1)c1cccnc1` (stereo not drawn), the lipophilicity (logP) in series [1] was 1.78.

`C#CCC(O)(c1cccnc1)C1CCCCC1` (stereo not drawn) had a lipophilicity (logP) in series [1] of 2.09.

In the case of `C#CCC(O)(c1cccnc1)c1ccc(Cl)cc1Cl` (stereo not drawn), in series [1], the logP was determined as 2.29.

The compound `C#CCC(O)(c1cccnc1)c1ccc2ccccc2c1` (stereo not drawn) gave a logP in series [1] of 2.14.

`C#CCC(O)c1cccnc1` (stereo not drawn) gave a logP of 1.21.

Values taken from the SangsterLogP compilation.
